This note sets out measurements from patent US7713971B2, “1,2,4-triazine derivatives, preparation and use thereof in human therapy” (Pierre Fabre Medicament, priority 2005, dated 2010).

In test [1] the target is T1, human PPARγ (Homo sapiens, UniProt P37231).
T1 construct: expressed in transfected cells; host or cells: Cos-7 cells (ATCC, CRL-1651)
T1 sequence (P37231 238-503 limits assumed): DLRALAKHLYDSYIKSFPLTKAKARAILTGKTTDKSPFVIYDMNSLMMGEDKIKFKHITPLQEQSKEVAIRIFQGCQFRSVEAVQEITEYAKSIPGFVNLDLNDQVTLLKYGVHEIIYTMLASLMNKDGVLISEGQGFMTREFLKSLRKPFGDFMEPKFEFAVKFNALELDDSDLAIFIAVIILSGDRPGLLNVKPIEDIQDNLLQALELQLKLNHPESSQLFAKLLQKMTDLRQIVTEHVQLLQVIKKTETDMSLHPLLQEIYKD
As to the kind of experiment: Reporter gene transactivation, hPPAR-GAL4 gamma. It is filed as cell-based. To be noted: transfected Cos-7 cells, Gal-4 luciferase reporter, 24 hours treatment. For orientation: In a reporter assay the amount or activity of a reporter protein is the signal.

Test [2] has as its target T2, human PPARα (Homo sapiens, UniProt Q07869).
T2 construct: expressed in transfected cells; host or cells: Cos-7 cells (ATCC, CRL-1651)
T2 sequence (Q07869 239-466 limits assumed): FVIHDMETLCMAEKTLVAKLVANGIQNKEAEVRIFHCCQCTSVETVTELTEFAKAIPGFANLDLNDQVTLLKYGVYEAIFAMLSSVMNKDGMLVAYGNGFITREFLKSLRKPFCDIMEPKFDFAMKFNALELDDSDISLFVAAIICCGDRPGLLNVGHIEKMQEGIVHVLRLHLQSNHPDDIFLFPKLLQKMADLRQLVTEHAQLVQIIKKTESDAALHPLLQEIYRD
As to the kind of experiment: Reporter gene transactivation, hPPAR-GAL4 alpha. The test is classed as cell-based. The settings on record: transfected Cos-7 cells, Gal-4 luciferase reporter, 24 hours treatment.

The structures appear in SMILES notation.

Broadly, the EC50 is the concentration at which the effect is half-maximal. A low value points to a more potent agent. With `CCCCCCCn1c(=O)c(OCCCCCc2cccc(OC(C)(C)C(=O)OCC)c2)nn(CCCC(F)(F)F)c1=O` [Example 18, Ethyl 2-(3-{5-[4-heptyl-3,5-dioxo-2-(4,4,4-trifluoro-butyl)-2,3,4,5-tetrahydro-[1,2,4]triazin-6-yloxy]-pentyl}-phenoxy)-2-methyl-propionate], the EC50 in test [1] is roughly 1 µM; in test [2], 0.03 to 0.1 µM.
In the same order, the values of `CCCCCCCn1c(=O)c(OCCCCCc2cccc(OC(C)(C)C(=O)OCC)c2)nn(Cc2ccccc2)c1=O` [Example 19, Ethyl 2-{3-[5-(2-benzyl-4-heptyl-3,5-dioxo-2,3,4,5-tetrahydro-[1,2,4]triazin-6-yloxy)-pentyl]-phenoxy}-2-methyl-propionate] are 3 to 10 µM and roughly 3 µM.
In the same order, the values of `CCOC(=O)C(C)(C)Oc1ccc(CCCCOc2nn(C)c(=O)n(CCCC(F)(F)F)c2=O)cc1` [Example 30, Ethyl 2-methyl-2-(4-{4-[2-methyl-3,5-dioxo-4-(4,4,4-trifluoro-butyl)-2,3,4,5-tetrahydro-[1,2,4]triazin-6-yloxy]-butyl}-phenoxy)-propionate] are greater than 10 µM and 0.03 to 0.1 µM.
In the same order, the values of `CCCCCCCn1nc(OCCCOc2cccc(OC(C)(C)C(=O)OCC)c2)c(=O)n(C)c1=O` [Example 33, Ethyl 2-{3-[3-(2-heptyl-4-methyl-3,5-dioxo-2,3,4,5-tetrahydro-[1,2,4]triazin-6-yloxy)-propoxy]-phenoxy}-2-methyl-propionate] are roughly 3 µM and roughly 3 µM.
Take `CCCCCCCn1nc(OCCCOc2cccc(SC(C)(C)C(=O)OCC)c2)c(=O)n(C)c1=O` [Example 34, Ethyl 2-{3-[3-(2-heptyl-4-methyl-3,5-dioxo-2,3,4,5-tetrahydro-[1,2,4]triazin-6-yloxy)-propoxy]-phenylsulfanyl}-2-methyl-propionate]: the EC50 in test [1] and in test [2] was greater than 10 µM throughout.
Take `CCCCCCCn1nc(OCCCCOc2cccc(OC(C)(C)C(=O)OCC)c2)c(=O)n(C)c1=O` [Example 36, Ethyl 2-{3-[4-(2-heptyl-4-methyl-3,5-dioxo-2,3,4,5-tetrahydro-[1,2,4]triazin-6-yloxy)-butoxy]-phenoxy}-2-methyl-propionate]: the 50% effective concentration (EC50) lay in the range of 3 to 10 µM in test [1] and 0.3 to 1 µM in test [2].
On the same counts, the results for `CCCCCCCn1nc(OCCCCOc2cccc(SC(C)(C)C(=O)OCC)c2)c(=O)n(C)c1=O` [Example 37, Ethyl 2-{3-[4-(2-heptyl-4-methyl-3,5-dioxo-2,3,4,5-tetrahydro-[1,2,4]triazin-6-yloxy)-butoxy]-phenylsulfanyl}-2-methyl-propionate] are roughly 10 µM and greater than 10 µM.
In the same order, the values of `CCCCCCCn1nc(OCCOc2ccc(SC(C)(C)C(=O)OCC)cc2)c(=O)n(C)c1=O` [Example 38, Ethyl 2-{4-[2-(2-heptyl-4-methyl-3,5-dioxo-2,3,4,5-tetrahydro-[1,2,4]triazin-6-yloxy)-ethoxy]-phenylsulfanyl}-2-methyl-propionate] are greater than 10 µM and greater than 10 µM.
In the same order, the values of `CCOC(=O)C(C)(C)Oc1ccc(OCCCNc2nn(CCCC(F)(F)F)c(=O)n(C)c2=O)cc1` [Example 44, Ethyl 2-methyl-2-(4-{3-[4-methyl-3,5-dioxo-2-(4,4,4-trifluoro-butyl)-2,3,4,5-tetrahydro-[1,2,4]triazin-6-ylamino]-propoxy}-phenoxy)-propionate] are 3 to 10 µM and greater than 10 µM.
As for `CCCCCCCn1c(=O)c(NCCCOc2ccc(SC(C)(C)C(=O)OCC)cc2)nn(C)c1=O` [Example 49, Ethyl 2-{4-[3-(4-heptyl-2-methyl-3,5-dioxo-2,3,4,5-tetrahydro-[1,2,4]triazin-6-ylamino)-propoxy]-phenylsulfanyl}-2-methyl-propionate], the concentration for a half-maximal effect (EC50) in test [1] and in test [2] was greater than 10 µM throughout.
In the case of `CCCCCCCn1c(=O)c(NCCCCOc2ccc(OC(C)(C)C(=O)OCC)cc2)nn(C)c1=O` [Example 50, Ethyl 2-{4-[4-(4-heptyl-2-methyl-3,5-dioxo-2,3,4,5-tetrahydro-[1,2,4]triazin-6-ylamino)-butoxy]-phenoxy}-2-methyl-propionate], the EC50 in test [1] was roughly 10 µM; in test [2] it was greater than 10 µM.
For the molecule `CCCCCCCn1nc(N(CCCOc2cccc(OC(C)(C)C(=O)OCC)c2)CCCC(F)(F)F)c(=O)n(C)c1=O` [Example 51, Ethyl 2-(3-{3-[(2-heptyl-4-methyl-3,5-dioxo-2,3,4,5-tetrahydro-[1,2,4]triazin-6-yl)-(4,4,4-trifluoro-butyl)-amino]-propoxy}-phenoxy)-2-methyl-propionate], the values for the EC50 in test [1] and in test [2] were greater than 10 µM and 3 to 10 µM, respectively.
Take `CCCCCCCn1nc(NCCc2cccc(OC(C)(C)C(=O)OCC)c2)c(=O)n(C)c1=O` [Example 57, Ethyl 2-{3-[2-(2-heptyl-4-methyl-3,5-dioxo-2,3,4,5-tetrahydro-[1,2,4]triazin-6-ylamino)-ethyl]-phenoxy}-2-methyl-propionate]: the values for the EC50 in test [1] and in test [2] were 1 to 3 µM and roughly 3 µM, respectively.
In the same order, the values of `CCCCCCCn1nc(NCCCc2cccc(OC(C)(C)C(=O)OCC)c2)c(=O)n(C)c1=O` [Example 64, Ethyl 2-{3-[3-(2-heptyl-4-methyl-3,5-dioxo-2,3,4,5-tetrahydro-[1,2,4]triazin-6-ylamino)-propyl]-phenoxy}-2-methyl-propionate] are 3 to 10 µM and greater than 10 µM.
In the same order, the values of `CCCCCCCn1nc(NCCCc2cccc(OC(C)(C)C(=O)OCC)c2)c(=O)n(CCCCCCC)c1=O` [Example 69, Ethyl 2-{3-[3-(2,4-diheptyl-3,5-dioxo-2,3,4,5-tetrahydro-[1,2,4]triazin-6-ylamino)-propyl]-phenoxy}-2-methyl-propionate] are roughly 10 µM and 1 to 3 µM.
In the case of `CCCCCCCn1c(=O)c(NCCCc2cccc(OC(C)(C)C(=O)OCC)c2)nn(Cc2ccccc2)c1=O` [Example 70, Ethyl 2-{3-[3-(2-benzyl-4-heptyl-3,5-dioxo-2,3,4,5-tetrahydro-[1,2,4]triazin-6-ylamino)-propyl]-phenoxy}-2-methyl-propionate], the EC50 in test [1] was roughly 10 µM; in test [2], roughly 1 µM.
In the same order, the values of `CCCCCCCn1c(=O)c(NCCCCc2cccc(OC(C)(C)C(=O)OCC)c2)nn(CCC#N)c1=O` [Example 86, Ethyl 2-(3-{4-[2-(2-cyano-ethyl)-4-heptyl-3,5-dioxo-2,3,4,5-tetrahydro-[1,2,4]triazin-6-ylamino]-butyl}-phenoxy)-2-methyl-propionate] are roughly 1 µM and greater than 10 µM.
For `CCCCCCCn1c(=O)c(NCCCCc2cccc(OC(C)(C)C(=O)OCC)c2)nn(C/C=C/C(=O)OCC)c1=O` [Example 87, Ethyl 4-(6-{4-[3-(1-ethoxycarbonyl-1-methyl-ethoxy)-phenyl]-butylamino}-4-heptyl-3,5-dioxo-4,5-dihydro-3H-[1,2,4]triazin-2-yl)-but-2-enonate], the EC50 was 0.1 to 0.3 µM in test [1] and roughly 0.3 µM in test [2].
As to `CCCCCCCn1nc(NCCCCc2cccc(OC(C)(C)C(=O)OCC)c2)c(=O)n(CCCCCCC)c1=O` [Example 88, Ethyl 2-{3-[4-(2,4-diheptyl-3,5-dioxo-2,3,4,5-tetrahydro-[1,2,4]triazin-6-ylamino)-butyl]-phenoxy}-2-methyl-propionate], the EC50 in test [1] was roughly 10 µM; in test [2], roughly 0.3 µM.
In the case of `CCCCCCCn1nc(NCCCCc2cccc(OC(C)(C)C(=O)OCC)c2)c(=O)n(Cc2ccccc2)c1=O` [Example 91, Ethyl 2-{3-[4-(4-benzyl-2-heptyl-3,5-dioxo-2,3,4,5-tetrahydro-[1,2,4]triazin-6-ylamino)-butyl]-phenoxy}-2-methyl-propionate], the EC50 lay within 3 to 10 µM in test [1] and 0.3 to 1 µM in test [2].
In the same order, the values of `CCCCCCCn1nc(NCCCCc2cccc(SC(C)(C)C(=O)OCC)c2)c(=O)n(C)c1=O` [Example 94, Ethyl 2-{3-[4-(2-heptyl-4-methyl-3,5-dioxo-2,3,4,5-tetrahydro-[1,2,4]triazin-6-ylamino)-butyl]-phenylsulfanyl}-2-methyl-propionate] are 3 to 10 µM and 3 to 10 µM.
For `CCCCCCCn1c(=O)c(NCCCCc2cccc(SC(C)(C)C(=O)OCC)c2)nn(Cc2ccccc2)c1=O` [Example 99, Ethyl 2-{3-[4-(2-benzyl-4-heptyl-3,5-dioxo-2,3,4,5-tetrahydro-[1,2,4]triazin-6-ylamino)-butyl]-phenylsulfanyl}-2-methyl-propionate], the EC50 in test [1] is 3 to 10 µM; in test [2], greater than 10 µM.
On the same counts, the results for `CCOC(=O)C(C)(C)Sc1cccc(CCCCNc2nn(CCCC(F)(F)F)c(=O)n(Cc3ccccc3)c2=O)c1` [Example 100, Ethyl 2-(3-{4-[4-Benzyl-3,5-dioxo-2-(4,4,4-trifluoro-butyl)-2,3,4,5-tetrahydro-[1,2,4]triazin-6-ylamino]-butyl}-phenylsulfanyl)-2-methyl-propionate] are greater than 10 µM and 1 to 3 µM.
Take `CCOC(=O)/C=C/Cn1nc(NCCc2ccc(OC(C)(C)C(=O)OCC)cc2)c(=O)n(CCCC(F)(F)F)c1=O` [Example 104, Ethyl 4-[6-{2-[4-(1-ethoxycarbonyl-1-methyl-ethoxy)-phenyl]-ethylamino}-3,5-dioxo-4-(4,4,4-trifluoro-butyl)-4,5-dihydro-3H-[1,2,4]triazin-2-yl]-but-2-enoate]: the concentration giving a half-maximal response (EC50) was greater than 10 µM in test [1] and 1 to 3 µM in test [2].
